In brackets after ≈: the same amount, converted by molar mass.
How the values were obtained:
Assay type in all cases: functional
Staphylococcus aureus [1] = assay: Antibacterial activity against methicillin-resistant Staphylococcus aureus assessed growth inhibition by micro broth dilution method
Staphylococcus aureus [2] = assay: Antibacterial activity against Staphylococcus aureus assessed growth inhibition by micro broth dilution method
Staphylococcus aureus [3] = assay: Antibacterial activity against Staphylococcus aureus ATCC 25923 assessed growth inhibition by micro broth dilution method
Staphylococcus aureus [4] = assay: Antibacterial activity against Staphylococcus aureus ATCC 29213 assessed growth inhibition by micro broth dilution method
Enterococcus faecalis = assay: Antibacterial activity against Enterococcus faecalis assessed growth inhibition by micro broth dilution method
Klebsiella pneumoniae = assay: Antibacterial activity against Klebsiella pneumonia assessed growth inhibition by micro broth dilution method
Escherichia coli [5] = assay: Antibacterial activity against Escherichia coli assessed growth inhibition by micro broth dilution method
Escherichia coli [6] = assay: Antibacterial activity against Escherichia coli ATCC 25922 assessed growth inhibition by micro broth dilution method
Pseudomonas aeruginosa [7] = assay: Antibacterial activity against Pseudomonas aeruginosa assessed growth inhibition by micro broth dilution method
Pseudomonas aeruginosa [8] = assay: Antibacterial activity against Pseudomonas aeruginosa ATCC 27853 assessed growth inhibition by micro broth dilution method
Acinetobacter baumannii = assay: Antibacterial activity against Acinetobacter baumannii assessed growth inhibition by micro broth dilution method

SMILES | MIC (Staphylococcus aureus [1]) | MIC (Staphylococcus aureus [2]) | MIC (Staphylococcus aureus [3]) | MIC (Staphylococcus aureus [4]) | MIC (Enterococcus faecalis) | MIC (Klebsiella pneumoniae) | MIC (Escherichia coli [5]) | MIC (Escherichia coli [6]) | MIC (Pseudomonas aeruginosa [7]) | MIC (Pseudomonas aeruginosa [8]) | MIC (Acinetobacter baumannii)
CCOC(=O)c1cn(CC(=O)N2CCN(C(=O)OC(C)(C)C)CC2)c2cc([C-](C#N)C(=O)OCC)c(F)cc2c1=O.[Na+] (centres undefined) | 32 µg/mL | 256 µg/mL | 16 µg/mL | 32 µg/mL | 64 µg/mL | 128 µg/mL | 16 µg/mL | 16 µg/mL | 64 µg/mL | 4 µg/mL | 32 µg/mL
CCOC(=O)c1cn(Cc2ccc(C)cc2)c2cc([C-](C#N)C(=O)OCC)c(F)cc2c1=O.[Na+] (centres undefined) | 64 µg/mL | 32 µg/mL | 0.5 µg/mL | 0.5 µg/mL | 16 µg/mL | 2 µg/mL | 1 µg/mL | 1 µg/mL | 8 µg/mL | 1 µg/mL | 2 µg/mL
CCCCCCCCCCCCn1cc(C(=O)OCC)c(=O)c2cc(F)c([C-](C#N)C(=O)OCC)cc21.[Na+] (centres undefined) | 8 µg/mL | 32 µg/mL | 1 µg/mL | 1 µg/mL | 8 µg/mL | 1 µg/mL | 1 µg/mL | 0.5 µg/mL | 4 µg/mL | 0.25 µg/mL | 0.25 µg/mL
CCCCCCCCn1cc(C(=O)O)c(=O)c2cc(F)c(C(C#N)C(=O)OCC)cc21 (centres undefined) | 8 µg/mL (≈ 18.6 µM) | 4 µg/mL (≈ 9.29 µM) | 1 µg/mL (≈ 2.32 µM) | 4 µg/mL (≈ 9.29 µM) | 16 µg/mL (≈ 37.2 µM) | 0.25 µg/mL (≈ 0.581 µM) | 32 µg/mL (≈ 74.3 µM) | 0.5 µg/mL (≈ 1.16 µM) | 4 µg/mL (≈ 9.29 µM) | 1 µg/mL (≈ 2.32 µM) | 1 µg/mL (≈ 2.32 µM)
CCOC(=O)C(C#N)c1cc2c(cc1F)c(=O)c(C(=O)O)cn2CC=C(C)C (centres undefined) | 8 µg/mL (≈ 20.7 µM) | 4 µg/mL (≈ 10.4 µM) | 4 µg/mL (≈ 10.4 µM) | 4 µg/mL (≈ 10.4 µM) | 64 µg/mL (≈ 166 µM) | 0.25 µg/mL (≈ 0.647 µM) | 32 µg/mL (≈ 82.8 µM) | 1 µg/mL (≈ 2.59 µM) | 8 µg/mL (≈ 20.7 µM) | 1 µg/mL (≈ 2.59 µM) | 1 µg/mL (≈ 2.59 µM)
CCOC(=O)C(C#N)c1cc2c(cc1F)c(=O)c(C(=O)O)cn2CC (centres undefined) | 4 µg/mL (≈ 11.6 µM) | 4 µg/mL (≈ 11.6 µM) | 4 µg/mL (≈ 11.6 µM) | 16 µg/mL (≈ 46.2 µM) | 64 µg/mL (≈ 185 µM) | 1 µg/mL (≈ 2.89 µM) | 32 µg/mL (≈ 92.4 µM) | 0.5 µg/mL (≈ 1.44 µM) | 8 µg/mL (≈ 23.1 µM) | 4 µg/mL (≈ 11.6 µM) | 8 µg/mL (≈ 23.1 µM)
CCOC(=O)c1cn(Cc2ccc(F)cc2F)c2cc(F)c(F)cc2c1=O | 256 µg/mL (≈ 675 µM) | 256 µg/mL (≈ 675 µM) | 256 µg/mL (≈ 675 µM) | 256 µg/mL (≈ 675 µM) | 256 µg/mL (≈ 675 µM) | 0.25 µg/mL (≈ 0.659 µM) | 16 µg/mL (≈ 42.2 µM) | 128 µg/mL (≈ 337 µM) | 64 µg/mL (≈ 169 µM) | 256 µg/mL (≈ 675 µM) | 16 µg/mL (≈ 42.2 µM)
CCOC(=O)c1cn(Cc2ccccc2Cl)c2cc(F)c(F)cc2c1=O | 256 µg/mL (≈ 678 µM) | 128 µg/mL (≈ 339 µM) | 256 µg/mL (≈ 678 µM) | 256 µg/mL (≈ 678 µM) | 4 µg/mL (≈ 10.6 µM) | 32 µg/mL (≈ 84.7 µM) | 2 µg/mL (≈ 5.29 µM) | 128 µg/mL (≈ 339 µM) | 256 µg/mL (≈ 678 µM) | 256 µg/mL (≈ 678 µM) | 32 µg/mL (≈ 84.7 µM)
CCCCCCCCn1cc(C(=O)OCC)c(=O)c2cc(F)c(F)cc21 | 256 µg/mL (≈ 701 µM) | 4 µg/mL (≈ 10.9 µM) | 128 µg/mL (≈ 350 µM) | 16 µg/mL (≈ 43.8 µM) | 64 µg/mL (≈ 175 µM) | 64 µg/mL (≈ 175 µM) | 4 µg/mL (≈ 10.9 µM) | 64 µg/mL (≈ 175 µM) | 64 µg/mL (≈ 175 µM) | 256 µg/mL (≈ 701 µM) | 64 µg/mL (≈ 175 µM)
C=CCn1cc(C(=O)OCC)c(=O)c2cc(F)c(F)cc21 | 256 µg/mL (≈ 873 µM) | 128 µg/mL (≈ 436 µM) | 64 µg/mL (≈ 218 µM) | 128 µg/mL (≈ 436 µM) | 128 µg/mL (≈ 436 µM) | 32 µg/mL (≈ 109 µM) | 8 µg/mL (≈ 27.3 µM) | 64 µg/mL (≈ 218 µM) | 64 µg/mL (≈ 218 µM) | 256 µg/mL (≈ 873 µM) | 256 µg/mL (≈ 873 µM)
NC1CCN(c2c(F)cc3c(=O)c(C(=O)O)cn(C4CC4)c3c2Cl)C1 (centres undefined) [CLINAFLOXACIN] | 1 µg/mL (≈ 2.73 µM) | 0.5 µg/mL (≈ 1.37 µM) | 0.5 µg/mL (≈ 1.37 µM) | 0.5 µg/mL (≈ 1.37 µM) | 4 µg/mL (≈ 10.9 µM) | 0.5 µg/mL (≈ 1.37 µM) | 0.25 µg/mL (≈ 0.683 µM) | 0.25 µg/mL (≈ 0.683 µM) | 0.5 µg/mL (≈ 1.37 µM) | 0.5 µg/mL (≈ 1.37 µM) | 0.5 µg/mL (≈ 1.37 µM)
CCOC(=O)c1cn(Cc2ccc([N+](=O)[O-])cc2)c2cc(F)c(F)cc2c1=O | 256 µg/mL (≈ 659 µM) | 128 µg/mL (≈ 330 µM) | 256 µg/mL (≈ 659 µM) | 256 µg/mL (≈ 659 µM) | 256 µg/mL (≈ 659 µM) | 256 µg/mL (≈ 659 µM) | 2 µg/mL (≈ 5.15 µM) | 128 µg/mL (≈ 330 µM) | 256 µg/mL (≈ 659 µM) | 256 µg/mL (≈ 659 µM) | 16 µg/mL (≈ 41.2 µM)
CCOC(=O)C(C#N)c1c(F)cc2c(=O)c(C(=O)O)cn(CC)c2c1F (centres undefined) | 16 µg/mL (≈ 43.9 µM) | 16 µg/mL (≈ 43.9 µM) | 32 µg/mL (≈ 87.8 µM) | 32 µg/mL (≈ 87.8 µM) | 128 µg/mL (≈ 351 µM) | 4 µg/mL (≈ 11 µM) | 64 µg/mL (≈ 176 µM) | 2 µg/mL (≈ 5.49 µM) | 64 µg/mL (≈ 176 µM) | 4 µg/mL (≈ 11 µM) | 0.5 µg/mL (≈ 1.37 µM)
CCCCCCCCCCCCn1cc(C(=O)OCC)c(=O)c2cc(F)c(F)cc21 | 256 µg/mL (≈ 607 µM) | 32 µg/mL (≈ 75.9 µM) | 128 µg/mL (≈ 304 µM) | 32 µg/mL (≈ 75.9 µM) | 64 µg/mL (≈ 152 µM) | 16 µg/mL (≈ 38 µM) | 16 µg/mL (≈ 38 µM) | 64 µg/mL (≈ 152 µM) | 64 µg/mL (≈ 152 µM) | 256 µg/mL (≈ 607 µM) | 64 µg/mL (≈ 152 µM)
CCCCCCn1cc(C(=O)OCC)c(=O)c2cc(F)c(F)cc21 | 256 µg/mL (≈ 759 µM) | 8 µg/mL (≈ 23.7 µM) | 128 µg/mL (≈ 379 µM) | 128 µg/mL (≈ 379 µM) | 64 µg/mL (≈ 190 µM) | 64 µg/mL (≈ 190 µM) | 8 µg/mL (≈ 23.7 µM) | 64 µg/mL (≈ 190 µM) | 64 µg/mL (≈ 190 µM) | 256 µg/mL (≈ 759 µM) | 64 µg/mL (≈ 190 µM)
CCOC(=O)c1cn(CC(=O)N2CCN(C(=O)OC(C)(C)C)CC2)c2cc(F)c(F)cc2c1=O | 64 µg/mL (≈ 133 µM) | 256 µg/mL (≈ 534 µM) | 128 µg/mL (≈ 267 µM) | 64 µg/mL (≈ 133 µM) | 64 µg/mL (≈ 133 µM) | 256 µg/mL (≈ 534 µM) | 4 µg/mL (≈ 8.34 µM) | 64 µg/mL (≈ 133 µM) | 64 µg/mL (≈ 133 µM) | 32 µg/mL (≈ 66.7 µM) | 64 µg/mL (≈ 133 µM)
CCOC(=O)c1cn(C2CC2)c2cc(C(C#N)C(=O)OCC)c(F)cc2c1=O (centres undefined) | 128 µg/mL (≈ 331 µM) | 16 µg/mL (≈ 41.4 µM) | 8 µg/mL (≈ 20.7 µM) | 32 µg/mL (≈ 82.8 µM) | 32 µg/mL (≈ 82.8 µM) | 8 µg/mL (≈ 20.7 µM) | 32 µg/mL (≈ 82.8 µM) | 32 µg/mL (≈ 82.8 µM) | 8 µg/mL (≈ 20.7 µM) | 64 µg/mL (≈ 166 µM) | 32 µg/mL (≈ 82.8 µM)
CCOC(=O)c1cn(Cc2cccc(Cl)c2)c2cc(F)c(F)cc2c1=O | 256 µg/mL (≈ 678 µM) | 64 µg/mL (≈ 169 µM) | 64 µg/mL (≈ 169 µM) | 128 µg/mL (≈ 339 µM) | 2 µg/mL (≈ 5.29 µM) | 32 µg/mL (≈ 84.7 µM) | 1 µg/mL (≈ 2.65 µM) | 64 µg/mL (≈ 169 µM) | 256 µg/mL (≈ 678 µM) | 32 µg/mL (≈ 84.7 µM) | 4 µg/mL (≈ 10.6 µM)
C=CCn1cc(C(=O)OCC)c(=O)c2cc(F)c([C-](C#N)C(=O)OCC)cc21.[Na+] (centres undefined) | 128 µg/mL | 128 µg/mL | 2 µg/mL | 32 µg/mL | 64 µg/mL | 32 µg/mL | 32 µg/mL | 16 µg/mL | 16 µg/mL | 16 µg/mL | 16 µg/mL

— ChEMBL document CHEMBL5528028, “Discovery of benzopyridone cyanoacetates as new type of potential broad-spectrum antibacterial candidates” (Eur J Med Chem, 2024)
